Data as given in patent US7939558B2, “Compounds having activity in increasing ion transport by mutant-CFTR and uses thereof” (The Regents of the University of California, priority 2004, dated 2011).

Biological target: ΔF508-CFTR (Homo sapiens, UniProt P13569, DEL508-508)
Test: Fluorescence (YFP-H148Q/I152L) I− influx assay of ΔF508-CFTR potentiator activity in FRT cells
Format: cell-based
Design: expressed in transfected cells
Settings: phenylglycine containing compounds, 27° C. 24 h, forskolin 20 μM, read-out: Ka
Experimental: Clonal populations of Fischer rat thyroid (FRT) epithelial cells stably co-expressing human ΔF508-CFTR and the high-sensitivity halide-sensing green fluorescent analog YFP-H148Q/I152L (Galietta et al., A.S. (2001) FEBS Lett. 499, 220-224) were generated by liposome transfection and limiting dilution with Zeocin/G418 selection. More than 100 clones were evaluated for high fluorescence and ΔF508-CFTR plasma membrane targeting after growth at 27° C. for 24 hours. For screening, cells were cultured on plastic in Coon's modified F12 medium supplemented with 10% fetal bovine serum, 2 mM L-glutamine, 100 U/ml penicillin, and 100 μg/ml streptomycin, and plated on black 96-well microplates (Corning-Costar 3904) at 30,000 cells/well. For short-circuit measurements cells were cultured on Snapwell permeable supports (Corning-Costar) at 500,000 cells/insert. Human nasal epithelium cells from CF patients were cultured on Snapwell inserts and allowed to differentiate in a hormone-supplemented medium (Galietta et al., Am. J. Physiol., […]). Some measurements were done using stably transfected FRT cells expressing YFP-H148Q and wildtype- or G551D-CFTR (Galietta et al., (2001) J. Biol. Chem. 276, 19723-19728). Patch clamp experiments were done on ΔF508-CFTR-expressing FRT cells plated in 35-mm Petri dishes.
Screening was carried out using a Beckman integrated system containing a 3-meter robotic arm, CO2 incubator containing microplate carousel, plate-washer, liquid handling workstation, bar code reader, delidding station, plate sealer, and two FluoStar fluorescence plate readers (Galaxy, BMG Lab Technologies), each equipped with dual syringe pumps and HQ500/20X ([…]) excitation and HQ535/30M (535±15 nm) emission filters (Chroma). Software was written in VBA (Visual Basic for Applications) to compute baseline-subtracted fluorescence slopes (giving halide influx rates).
For assay of ΔF508-CFTR potentiator activity the incubator (27° C., 90% humidity, 5% CO2/95% air) was loaded with forty-to-sixty 96-well plates containing FRT cells. After an 18-24 hour incubation plates were washed 3 times with PBS (300 μl/wash) leaving 50 μl PBS. 10 μl of PBS containing 120 μM forskolin was added, and after 5 min test compounds (0.6 μl of 0.25 mM DMSO solution) were added to each well to give 2.5 μM final compound concentrations. After 15 min, 96-well plates were transferred to a plate reader for fluorescence assay. Each well was assayed individually for I^− influx by recording fluorescence continuously (200 ms per point) for 2 seconds (baseline) and then for 12 seconds after rapid (<1 s) addition of 160 μL of isosmolar PBS in which 137 mM Cl^− was replaced by I^−. I^− influx rates were computed from initial fluorescence versus time-curve slopes (determined by 3rd order polynomial regression) after normalization for total fluorescence (background subtracted initial fluorescence). All compound plates contained negative control (DMSO vehicle alone) and positive controls (genistein, 5 μM and 50 μM). Assay analysis indicated a Z′-factor of >0.7 (Zhang et al., J. Biomol. Screen 4:67-73 (1999)).
The high-throughput screen was designed to identify compounds that activated ΔF508-CFTR when expressed at the cell plasma membrane. FRT epithelial cells co-expressing ΔF508-CFTR and a high sensitivity yellow fluorescent protein-based halide indicator were incubated at 27° C. for 24 h to permit ΔF508-CFTR plasma membrane targeting (FIG. 1, panel A). After washing, forskolin (20 μM) and test compounds (2.5 μM) were added to individual wells of 96-well plates. The I^− influx assay was carried out ˜15 min later by measurement of the time course of decreasing YFP fluorescence after creation of an inwardly-directed I^− gradient. A high concentration of forskolin was used to identify ΔF508-CFTR potentiators that may interact directly with ΔF508-CFTR rather than alter cAMP concentration. […]

ΔF508-CFTR, sequence (P13569 with tags, fused parts or gaps DEL508-508): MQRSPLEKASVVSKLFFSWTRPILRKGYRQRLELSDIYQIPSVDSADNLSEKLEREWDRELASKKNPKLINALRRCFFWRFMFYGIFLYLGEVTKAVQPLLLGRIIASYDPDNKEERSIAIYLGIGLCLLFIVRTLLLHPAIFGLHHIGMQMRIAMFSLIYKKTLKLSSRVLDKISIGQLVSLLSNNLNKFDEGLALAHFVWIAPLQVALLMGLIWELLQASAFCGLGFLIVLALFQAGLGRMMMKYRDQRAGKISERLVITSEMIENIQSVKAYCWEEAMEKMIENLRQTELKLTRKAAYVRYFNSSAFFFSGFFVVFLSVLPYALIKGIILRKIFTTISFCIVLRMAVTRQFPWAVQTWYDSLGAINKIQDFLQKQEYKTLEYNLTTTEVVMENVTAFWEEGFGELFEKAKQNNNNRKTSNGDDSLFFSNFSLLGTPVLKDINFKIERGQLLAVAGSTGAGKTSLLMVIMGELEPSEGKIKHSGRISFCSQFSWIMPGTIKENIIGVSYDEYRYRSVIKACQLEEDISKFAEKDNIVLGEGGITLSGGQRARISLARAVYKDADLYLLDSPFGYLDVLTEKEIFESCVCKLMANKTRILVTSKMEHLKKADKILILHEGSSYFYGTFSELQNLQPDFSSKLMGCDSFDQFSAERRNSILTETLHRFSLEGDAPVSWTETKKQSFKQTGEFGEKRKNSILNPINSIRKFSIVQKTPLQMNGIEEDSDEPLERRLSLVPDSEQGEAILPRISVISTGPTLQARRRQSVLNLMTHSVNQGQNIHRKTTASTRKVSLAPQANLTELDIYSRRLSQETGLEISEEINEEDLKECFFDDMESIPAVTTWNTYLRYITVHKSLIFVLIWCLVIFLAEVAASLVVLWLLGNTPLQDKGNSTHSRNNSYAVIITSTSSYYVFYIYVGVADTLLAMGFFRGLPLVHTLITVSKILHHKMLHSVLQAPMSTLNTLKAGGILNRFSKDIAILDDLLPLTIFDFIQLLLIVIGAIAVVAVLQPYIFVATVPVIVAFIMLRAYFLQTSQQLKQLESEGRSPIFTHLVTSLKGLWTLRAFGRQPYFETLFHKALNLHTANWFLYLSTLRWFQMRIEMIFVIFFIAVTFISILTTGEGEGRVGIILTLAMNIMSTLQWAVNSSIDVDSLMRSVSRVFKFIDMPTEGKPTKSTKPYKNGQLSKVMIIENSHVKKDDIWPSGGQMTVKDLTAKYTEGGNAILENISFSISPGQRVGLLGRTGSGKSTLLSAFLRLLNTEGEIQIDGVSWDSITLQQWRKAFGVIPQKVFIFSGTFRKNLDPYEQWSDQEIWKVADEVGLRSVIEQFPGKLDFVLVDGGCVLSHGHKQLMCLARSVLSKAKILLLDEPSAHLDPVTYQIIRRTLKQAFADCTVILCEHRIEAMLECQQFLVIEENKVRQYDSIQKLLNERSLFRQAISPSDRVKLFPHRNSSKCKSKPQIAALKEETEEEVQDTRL

| EC50 [nM] | SMILES |
| --- | --- |
| 300 | CC(=O)NCC(=O)N(C)C(C(=O)Nc1ccc2c(c1)OCCO2)c1ccccc1 (centres unmarked) [Compound P-2, 2-[(2-Acetylamino-acetyl)-methyl-amino]-N-(2,3-dihydro-benzo[1,4]dioxin-6-yl)-2-phenyl-acetamide] |
| 700 | COc1ccc(NC(=O)C(c2ccccc2)N(C)C(=O)Cc2c[nH]c3ccccc23)cc1 (centres unmarked) [Compound P-5, 2-[(2-1H-Indol-3-yl-acetyl)-methyl-amino]-N-(4-methoxy-phenyl)-2-phenyl-acetamide] |

Same assay, conditions: sulfonamide containing compounds, 27° C. 24 h, forskolin 20 μM, read-out: Ka

| SMILES | EC50 [nM] |
| --- | --- |
| CCN(c1ccc(F)cc1)S(=O)(=O)c1ccc2[nH]cc(C(=O)NCC3CCCO3)c(=O)c2c1 (centres unmarked) [Compound S-30, 6-[Ethyl-(4-fluoro-phenyl)-sulfamoyl]-4-oxo-1,4-dihydro-quinoline-3-carboxylic acid (tetrahydro-furan-2-ylmethyl)-amide] | 540 |
| CCOC(=O)C(NC(=O)c1c[nH]c2ccc(S(=O)(=O)N(C)C3CCCCC3)cc2c1=O)C(=O)OCC [Compound S-34] | 590 |
| CCN(CC)S(=O)(=O)c1ccc2[nH]cc(C(=O)NCc3ccc4c(c3)OCO4)c(=O)c2c1 [Compound S-24] | 380 |
| CCN(c1ccccc1)S(=O)(=O)c1ccc2[nH]cc(C(=O)NCc3ccco3)c(=O)c2c1 [Compound S-27] | 460 |
| CCOc1ccccc1N(C)S(=O)(=O)c1ccc2[nH]cc(C(=O)NCC3CCCO3)c(=O)c2c1 (centres unmarked) [Compound S-14] | 200 |
| COCCCNC(=O)c1c[nH]c2ccc(S(=O)(=O)N(C)c3cc(C)ccc3C)cc2c1=O [Compound S-19] | 290 |
| CCN(c1ccc(F)cc1)S(=O)(=O)c1ccc2[nH]cc(C(=O)NC3CCCC3)c(=O)c2c1 [Compound S-21, 6-[Ethyl-(4-fluoro-phenyl)-sulfamoyl]-4-oxo-1,4-dihydro-quinoline-3-carboxylic acid cyclopentylamide] | 330 |
| CCc1ccccc1N(C)S(=O)(=O)c1ccc2[nH]cc(C(=O)NCc3ccccn3)c(=O)c2c1 [Compound S-18] | 270 |
| CCN(c1ccccc1)S(=O)(=O)c1ccc2[nH]cc(C(=O)NC3CCCCCC3)c(=O)c2c1 [Compound S-2] | 20 |
| C=CCN(c1ccccc1)S(=O)(=O)c1ccc2[nH]cc(C(=O)NCc3ccccn3)c(=O)c2c1 [Compound S-11] | 160 |
| CCCCNC(=O)c1c[nH]c2ccc(S(=O)(=O)N(C)c3c(C)cccc3C)cc2c1=O [Compound S-20, 6-[(2,6-Dimethyl-phenyl)-methyl-sulfamoyl]-4-oxo-1,4-dihydro-quinoline-3-carboxylic acid butylamide] | 330 |
| C=CCN(c1ccccc1)S(=O)(=O)c1ccc2[nH]cc(C(=O)NCCCCCC)c(=O)c2c1 [Compound S-12] | 190 |
| CCN(c1cccc(C)c1)S(=O)(=O)c1ccc2[nH]cc(C(=O)NCc3ccccc3OC)c(=O)c2c1 [Compound S-35] | 600 |

Second part, the compound after the results:

| EC50 [nM] | SMILES |
| --- | --- |
| 720 | CCN(c1cccc(C)c1)S(=O)(=O)c1ccc2[nH]cc(C(=O)NCCC(C)C)c(=O)c2c1 [Compound S-40] |
| 1250 | CCCNC(=O)c1c[nH]c2ccc(S(=O)(=O)N(C)c3ccc(F)cc3)cc2c1=O [Compound S-55] |
| 810 | CCC(C)NC(=O)c1c[nH]c2ccc(S(=O)(=O)N(C)c3ccc(Br)cc3)cc2c1=O (centres unmarked) [Compound S-45] |
| 1160 | CCN(c1ccccc1)S(=O)(=O)c1ccc2[nH]cc(C(=O)NC(C)C)c(=O)c2c1 [Compound S-53] |
| 770 | CCc1ccccc1N(C)S(=O)(=O)c1ccc2[nH]cc(C(=O)NCCOC)c(=O)c2c1 [Compound S-43] |
| 620 | CCOCCCNC(=O)c1c[nH]c2ccc(S(=O)(=O)N(C)c3ccccc3CC)cc2c1=O [Compound S-36] |
| 650 | C=CCN(c1ccccc1)S(=O)(=O)c1ccc2[nH]cc(C(=O)NCc3ccco3)c(=O)c2c1 [Compound S-37, 6-(Allyl-phenyl-sulfamoyl)-4-oxo-1,4-dihydro-quinoline-3-carboxylic acid (furan-2-ylmethyl)-amide] |
| 1110 | CCN(c1cccc(C)c1)S(=O)(=O)c1ccc2[nH]cc(C(=O)NCC3CCCO3)c(=O)c2c1 (centres unmarked) [Compound S-51] |
